Reference: patent US5798336A, “Antimicrobial peptides” (priority 1995, dated 1998)
Read-outs that look alike come from different tables or passages of the source. Where a SMILES comes first, the peptide text is derived from it.

Tests used:
S. aureus strain 8325-4 [1] = details: strain 8325-4, 500
[2] = system: P. aeruginosa clinical isolates; type: cell-based, Pseudomonas aeruginosa; details: four independent clinical isolates
From the text: P. aeruginosa ATCC 27853 (American Type Culture Collection, Rockville, Md.) is the strain used for testing antimicrobial activity against P. aeruginosa unless otherwise noted. It is a standardized strain for antibiotic-susceptibility testing of pseudomonads (see, e.g., Code of Federal Regulations, Title 21, Part 460, 1987). […] Agents effective against P. aeruginosa are needed in the art because multiple antibiotic resistance is quite common among clinical strains, and therefore resultant infections are often difficult to treat.
^1 3-5 × 10^7 CFU/ml of the designated strains were exposed
to 500 μg/ml of HPLCpurified peptides in 1/100 strength BHSS (10 mm
sodium phosphate, pH 7.0, 10 mM NaCl.

S. aureus strain 8325-4 [3] = details: for % Survival of S. aureus: Table 3, all peptides at 5×10^-4 M
[4] = system: N. gonorrhoeae strain FA 102
[5] = system: N. gonorrhoeae strain WS1; details: strain WS1, 500
P. aeruginosa = experiment: Bactericidal capacity of cathepsin G in 1% TSB, P. aeruginosa; type: cell-based, Pseudomonas aeruginosa; details: Table 11, 50 μg/ml, 2 h at 37° C.
S. aureus = type: cell-based, Staphylococcus aureus; details: Table 11; 50 μg/ml; 1% TSB, 2 h at 37° C.

CC[C@H](C)[C@H](NC(=O)[C@H](Cc1c[nH]c2ccccc12)NC(=O)[C@@H]1CCCN1C(=O)[C@H](CC(C)C)NC(=O)[C@H](Cc1ccccc1)NC(=O)[C@H](CO)NC(=O)[C@H](CO)NC(=O)[C@@H](NC(=O)[C@H](Cc1ccccc1)NC(=O)[C@H](CCCNC(=N)N)NC(=O)[C@@H](NC(=O)[C@H](Cc1ccccc1)NC(=O)[C@@H](NC(=O)[C@H](CCC(=O)O)NC(=O)[C@@H]1CCCN1C(=O)[C@@H]1CCCN1C(=O)[C@@H](NC(=O)CNC(=O)[C@H](CO)NC(=O)[C@H](CO)NC(=O)[C@H](CCCCN)NC(=O)CN)C(C)C)C(C)C)[C@@H](C)O)C(C)C)C(=O)N[C@@H](CCCNC(=N)N)C(=O)N[C@H](C(=O)N[C@H](C(=O)N[C@@H](CCSC)C(=O)N[C@@H](CCCNC(=N)N)C(=O)O)[C@@H](C)O)[C@@H](C)O [CG 198-223] (H-GKSSGVPPEVFTRFVSSFLPWIRTTMR-OH; N-terminus and C-terminus assumed)
Log Kill (500 μg/ml) P. aeruginosa ATCC 278533 (P. aeruginosa ATCC 27853; Table 7A, RP-HPLC-purified peptides 500 μg/ml): 5.73 log | Log Kill (500 μg/ml) S. aureus strain 8325-4 (S. aureus strain 8325-4 [1]): 0.26 log | killing of P. aeruginosa clinical strains (in words) [2]: some variability in effectiveness

H^1m QYNQR
% Survival of S. aureus (S. aureus strain 8325-4 [3]): 37.3%

H^Dnp PQYNQR
% Survival of S. aureus (S. aureus strain 8325-4 [3]): 102.2%

H^Benzyl PQYNQR
% Survival of S. aureus (S. aureus strain 8325-4 [3]): 99.0%

O=C(N[C@H](CO)[C@H](O)c1ccc([N+](=O)[O-])cc1)C(Cl)Cl [Chloramphenicol, reference compound]
bactericidal capacity compared with antibiotics and defensin pool (in words) ([4]; N. gonorrhoeae strain FA 102, each compound 5.0×10^-4 M, 30 min at 37° C., FIG. 5): more effective at this concentration than the defensin pool or the test peptides

CC[C@H](C)[C@H](N)C(=O)N[C@H](C(=O)NCC(=O)NCC(=O)N[C@@H](CCCNC(=N)N)C(=O)O)C(C)C [IVGGR] (H-IVGGR-OH)
ED50 (S. aureus strain 8325-4 [3]): > 875 µM

CC[C@H](C)[C@H](NC(=O)[C@H](C)NC(=O)[C@H](CCCNC(=N)N)NC(=O)[C@H](CCCNC(=N)N)NC(=O)[C@H](C)NC(=O)[C@@H](NC(=O)[C@@H](NC(=O)[C@H](Cc1c[nH]cn1)NC(=O)[C@H](CCC(N)=O)NC(=O)[C@H](CCC(N)=O)NC(=O)[C@@H](NC(=O)[C@H](CC(N)=O)NC(=O)[C@H](CCC(=O)O)NC(=O)[C@H](CCCNC(=N)N)NC(=O)[C@@H](N)CCCNC(=N)N)[C@@H](C)O)[C@@H](C)CC)[C@@H](C)O)C(=O)N[C@@H](CCCNC(=N)N)C(=O)N[C@@H](Cc1c[nH]cn1)C(=O)N1CCC[C@H]1C(=O)N[C@@H](CCC(N)=O)C(=O)N[C@@H](Cc1ccc(O)cc1)C(=O)O [CG 61-80] (H-RRENTQQHITARRAIRHPQY-OH)
Log Kill (500 μg/ml) P. aeruginosa ATCC 278533 (P. aeruginosa ATCC 27853; ATCC 27853, 500): 5.15 log | Log Kill (500 μg/ml) S. aureus strain 8325-4 (S. aureus strain 8325-4 [1]): 0.58 log | Log Kill (500 μg/ml) N. gonorrhoeae strain WS1 [5]: 0 log

N=C(N)NCCC[C@H](NC(=O)[C@H](CCC(N)=O)NC(=O)[C@H](CC(N)=O)NC(=O)[C@H](Cc1ccc(O)cc1)NC(=O)[C@H](CCC(N)=O)NC(=O)[C@@H]1CCCN1C(=O)[C@@H](N)Cc1c[nH]cn1)C(=O)O [HPQYNQR] (H-HPQYNQR-OH)
ED50 for N. gonorrhoeae [4]: 50 µM

CSCC[C@H](NC(=O)[C@H](CO)NC(=O)[C@@H](NC(=O)[C@H](CCCNC(=N)N)NC(=O)CNC(=O)[C@H](Cc1c[nH]c2ccccc12)NC(=O)CNC(=O)[C@H](C)NC(=O)[C@@H](NC(=O)[C@@H](NC(=O)[C@@H](N)CS)[C@@H](C)O)C(C)C)C(C)C)C(=O)N[C@@H](CCCNC(=N)N)C(=O)N[C@@H](CCCNC(=N)N)C(=O)NCC(=O)N[C@H](C(=O)O)[C@@H](C)O [CG 122-136] (H-CTVAGWGRVSMRRGT-OH)
Log Kill (500 μg/ml) P. aeruginosa ATCC 27853 (P. aeruginosa ATCC 27853; ATCC 27853, 500): 4.75 log | Log Kill (500 μg/ml) S. aureus strain 8325-4 (S. aureus strain 8325-4 [1]): 0 log | Log Kill (500 μg/ml) N. gonorrhoeae strain WS1 [5]: 4.18 log

CSCC[C@H](NC(=O)[C@H](CO)NC(=O)[C@@H](NC(=O)[C@H](CCCNC(=N)N)NC(=O)CNC(=O)[C@@H](N)Cc1c[nH]c2ccccc12)C(C)C)C(=O)N[C@@H](CCCNC(=N)N)C(=O)N[C@@H](CCCNC(=N)N)C(=O)NCC(=O)N[C@H](C(=O)O)[C@@H](C)O [CG 127-136] (H-WGRVSMRRGT-OH)
Log Kill (500 μg/ml) P. aeruginosa ATCC 27853 (P. aeruginosa ATCC 27853; ATCC 27853, 500): 0.27 log | Log Kill (500 μg/ml) S. aureus strain 8325-4 (S. aureus strain 8325-4 [1]): 0 log | Log Kill (500 μg/ml) N. gonorrhoeae strain WS1 [5]: 3.20 log

CC[C@H](C)[C@H](N)C(=O)N[C@H](C(=O)NCC(=O)NCC(=O)N[C@@H](CCCNC(=N)N)C(=O)N[C@@H](CCC(=O)O)C(=O)N[C@@H](CO)C(=O)N[C@@H](CCCNC(=N)N)C(=O)N1CCC[C@H]1C(=O)N[C@@H](Cc1c[nH]cn1)C(=O)N[C@@H](CO)C(=O)N[C@@H](CCCNC(=N)N)C(=O)N1CCC[C@H]1C(=O)N[C@@H](Cc1ccc(O)cc1)C(=O)N[C@@H](CCSC)C(=O)N[C@@H](C)C(=O)N[C@@H](Cc1ccc(O)cc1)C(=O)N[C@@H](CC(C)C)C(=O)N[C@@H](CCC(N)=O)C(=O)N[C@H](C(=O)O)[C@@H](C)CC)[C@@H](C)CC [CG 1-20] (H-IIGGRESRPHSRPYMAYLQI-OH)
Log Kill (500 μg/ml) P. aeruginosa ATCC 27853 (P. aeruginosa ATCC 27853; ATCC 27853, 500): 5.507 log | Log Kill (500 μg/ml) P. aeruginosa ATCC 278533 (P. aeruginosa ATCC 27853; ATCC 27853, 500): 1.0 log | Log Kill (500 μg/ml) S. aureus strain 8325-4 (S. aureus strain 8325-4 [1]): 0.3 log | Log Kill (500 μg/ml) N. gonorrhoeae strain WS1 [5]: 2.57 log | Log Kill (500 μg/ml) N. gonorrhoeae strain WSI [5]: 0.43 log

enzymatically active Cat G: cathepsin G purified from extracts of human PMN granules
Log Reduction in CFU/ml P. aeruginosa (P. aeruginosa): 2.41 log | Log Reduction in CFU/ml S. aureus (S. aureus): 2.82 log | ED50 for S. aureus (S. aureus strain 8325-4 [3]; HBSS, optimal conditions): 4 µM

H^3m PQYNQR
% Survival of S. aureus (S. aureus strain 8325-4 [3]): 18.3%

CC[C@H](C)[C@H](N)C(=O)N[C@H](C(=O)NCC(=O)NCC(=O)N[C@@H](CCCNC(=N)N)C(=O)O)[C@@H](C)CC [IIGGR] (H-IIGGR-OH)
ED50 (S. aureus strain 8325-4 [3]): 430 µM
